This is an account of results in patent US10961238B2, “Modulators of hedgehog (Hh) signaling pathway” (E-THERAPEUTICS PLC, priority 2016, dated 2021).

pIC50: −log10 of the molar value.

In general, pIC50 refers to the negative decadic logarithm of the IC50, by convention in mol/L.

The subject of the first assay is C3H10T1/2 cells. Nature of the assay: C3H assay: differentiation of C3H10T1/2 cells by mSHH, measurement of alkaline phosphatase. The settings on record: C3H10T1/2 cells stimulated with mSHH for 72 hours; alkaline phosphatase activity; read-out: IC50 Ranges. It is filed as cell-based, mouse.
Take `CC[C@@H](C)OC(=O)N1CC(S(=O)(=O)N2CCC(c3coc4cccnc34)CC2)C1` [Compound 371, [(2R)-butan-2-yl]3-(4-furo[3,2-b]pyridin-3-ylpiperidin-1-yl)sulfonylaze-tidine-1-carboxylate]: the pIC50 is 7.00 to 8.00.
As to `CC1(C)COCN1C(=O)N1CC(S(=O)(=O)N2CCC(c3coc4cccnc34)CC2)C1` [Compound 372, (4,4-dimethyl-1,3-oxazolidin-3-yl)-[3-(4-furo[3,2-b]pyridin-3-ylpiperidin-1-yl)sulfonylaze-tidin-1-yl]methanone], the pIC50 is 7.00 to 8.00.

The assay is the same for the next values; noted with them: Mus musculus, C3H 10T1/2; C3H10T1/2 cells stimulated with mSHH for 72 hours; alkaline phosphatase activity; read-out: IC50 Ranges.
As for `Cc1c(F)cccc1NC(=O)N1CC(S(=O)(=O)N2CCC(c3coc4cccnc34)CC2)C1` [Compound 360, N-(3-fluoro-2-methylphenyl)-3-(4-furo[3,2-b]pyridin-3-ylpiperidin-1-yl)sulfonylaze-tidine-1-carboxamide], the pIC50 was 7.00 to 8.00.
Regarding `O=C(NC1(C(F)(F)F)CC1)[C@H]1C[C@@H](S(=O)(=O)N2CCC(c3coc4cccnc34)CC2)C1` [Compound 361, cis-3-(4-furo[3,2-b]pyridin-3-ylpiperidin-1-yl)sulfonyl-N-[1-(trifluoromethyl)cyclopropyl] cyclobutane-1-carboxamide], the pIC50 was 7.00 to 8.00.
Regarding `CC(C)(C)NC(=O)[C@H]1C[C@@H](S(=O)(=O)N2CCC(c3coc4cccnc34)CC2)C1` [Compound 362, cis-N-tert-butyl-3-(4-furo[3,2-b]pyridin-3-ylpiperidin-1-yl) sulfonylcyclobutane-1-carboxamide], the pIC50 was 7.00 to 8.00.
In the case of `Cc1c(F)cccc1NC(=O)N1CC(S(=O)(=O)N2CCC(c3c[nH]c4ncccc34)CC2)C1` [Compound 363, N-(3-fluoro-2-methylphenyl)-3-[4-(1H-pyrrolo[2,3-b]pyridin-3-yl)piperidin-1-yl]sulfonylaze-tidine-1-carboxamide], the pIC50 was 7.00 to 8.00.
The same measure, in the same setting: then `Cc1ccccc1NC(=O)N1CC(S(=O)(=O)N2CCC(c3c[nH]c4ncccc34)CC2)C1` [Compound 364, N-(2-methylphenyl)-3-[4-(1H-pyrrolo[2,3-b]pyridin-3-yl)piperidin-1-yl]sulfonylaze-tidine-1-carboxamide], with 7.00 to 8.00; and `Cc1ccc(F)cc1NC(=O)N1CC(S(=O)(=O)N2CCC(c3coc4cccnc34)CC2)C1` [Compound 365, N-(5-fluoro-2-methylphenyl)-3-(4-furo[3,2-b]pyridin-3-ylpiperidin-1-yl)sulfonylaze-tidine-1-carboxamide], with 7.00 to 8.00.
As for `Cc1ccc(F)cc1NC(=O)N1CC(S(=O)(=O)N2CCC(c3ccc(C#N)cc3)CC2)C1` [Compound 366, 3-[4-(4-cyanophenyl)piperidin-1-yl]sulfonyl-N-(5-fluoro-2-methylphenyl) azetidine-1-carboxamide], the pIC50 is 6.00 to 7.00.
For `Cc1ccc(F)cc1NC(=O)N1CC(S(=O)(=O)N2CCC(c3ccc(F)cc3)CC2)C1` [Compound 367, N-(5-fluoro-2-methylphenyl)-3-[4-(4-fluorophenyl)piperidin-1-yl]sulfonylaze-tidine-1-carboxamide], the pIC50 is 5.00 to 6.00.
On to `Cc1ccc2c(C3CCN(S(=O)(=O)C4CN(C(=O)Nc5cc(F)ccc5C)C4)CC3)c[nH]c2n1` [Compound 368, N-(5-fluoro-2-methylphenyl)-3-[4-(6-methyl-1H-pyrrolo[2,3-b]pyridin-3-yl)piperidin-1-yl]sulfonylaze-tidine-1-carboxamide], for which the pIC50 is 5.00 to 6.00.
Consider `Cc1ccccc1NC(=O)N1CC(S(=O)(=O)N2CCC(c3coc4cccnc34)CC2)C1` [Compound 369, 3-(4-furo[3,2-b]pyridin-3-ylpiperidin-1-yl)sulfonyl-N-(2-methylphenyl) azetidine-1-carboxamide], for which the pIC50 is 6.00 to 7.00.
The same measure, in the same setting: the same measure for `CC(C)(C)NC(=O)N1CC(S(=O)(=O)N2CCC(c3coc4cccnc34)CC2)C1` [Compound 370, N-tert-butyl-3-(4-furo[3,2-b]pyridin-3-ylpiperidin-1-yl)sulfonylaze-tidine-1-carboxamide]: 7.00 to 8.00; for `CC(C)[C@@H](CO)NC(=O)N1CC(S(=O)(=O)N2CCC(c3coc4cccnc34)CC2)C1` [Compound 373, 3-(4-furo[3,2-b]pyridin-3-ylpiperidin-1-yl)sulfonyl-N-[(2S)-1-hydroxy-3-methylbutan-2-yl]azetidine-1-carboxamide]: 7.00 to 8.00.
Consider `C[C@@H]1CN(C(=O)N2CC(S(=O)(=O)N3CCC(c4coc5cccnc45)CC3)C2)C[C@H](C)O1` [Compound 374, [(2R,6S)-2,6-dimethylmorpholin-4-yl]-[3-(4-furo[3,2-b]pyridin-3-ylpiperidin-1-yl)sulfonylazetidin-1-yl]methanone], for which the pIC50 is greater than 8.00.
Consider `CC(C)(C)C(=O)CN1CC(S(=O)(=O)N2CCC(c3ccc(F)cc3)CC2)C1` [Compound 375, 1-[3-[4-(4-fluorophenyl)piperidin-1-yl]sulfonylaze-tidin-1-yl]-3,3-dimethylbutan-2-one], for which the pIC50 is 6.00 to 7.00.
For `CC(C)(C)C(=O)CN1CC(S(=O)(=O)N2CCC(c3coc4cccnc34)CC2)C1` [Compound 376, 1-[3-(4-furo[3,2-b]pyridin-3-ylpiperidin-1-yl)sulfonylazetidin-1-yl]-3,3-dimethylbutan-2-one], the pIC50 is 7.00 to 8.00.
In the case of `O=C(CC1CCOCC1)N1CC(S(=O)(=O)N2CCC(c3coc4cccnc34)CC2)C1` [Compound 377, 1-[3-[(4-furo[3,2-b]pyridin-3-yl-1-piperidyl)sulfonyl]azetidin-1-yl]-2-tetrahydropyran-4-yl-ethanone], the pIC50 is 7.00 to 8.00.
Regarding `CC(C)(C)C(=O)CN1CC(S(=O)(=O)N2CCC(c3ccc(C#N)cc3)CC2)C1` [Compound 378, 4-[1-[1-(3,3-dimethyl-2-oxobutyl)azetidin-3-yl]sulfonylpiperidin-4-yl]benzonitrile], the pIC50 is 6.00 to 7.00.
The same measure, in the same setting: the same measure for `O=C(CC(O)(C(F)(F)F)C(F)(F)F)N1CC(S(=O)(=O)N2CCC(c3c[nH]c4cccnc34)CC2)C1` [Compound 379, 4,4,4-trifluoro-3-hydroxy-1-[3-[4-(1H-pyrrolo[3,2-b]pyridin-3-yl)piperidin-1-yl]sulfonylaze-tidin-1-yl]-3-(trifluoromethyl) butan-1-one]: 7.00 to 8.00; for `Cc1ccc2c(C3CCN(S(=O)(=O)C4CN(C(=O)OC5CCOCC5)C4)CC3)c[nH]c2n1` [Compound 380, oxan-4-yl 3-[4-(6-methyl-1H-pyrrolo[2,3-b]pyridin-3-yl)piperidin-1-yl]sulfonylaze-tidine-1-carboxylate]: greater than 8.00.
The same measure, in the same setting: then `Cc1ccc2c(C3CCN(S(=O)(=O)C4CN(C(=O)N5C[C@@H](C)O[C@@H](C)C5)C4)CC3)c[nH]c2n1` [Compound 381, [cis-2,6-dimethylmorpholin-4-yl]-[3-[4-(6-methyl-1H-pyrrolo[2,3-b]pyridin-3-yl)piperidin-1-yl]sulfonylazetidin-1-yl]methanone], with greater than 8.00.
On to `Cc1cccc(C)c1NC(=O)N1CC(S(=O)(=O)N2CCC(c3coc4cccnc34)CC2)C1` [Compound 382, N-(2,6-dimethylphenyl)-3-(4-furo[3,2-b]pyridin-3-ylpiperidin-1-yl)sulfonylaze-tidine-1-carboxamide], for which the pIC50 was 7.00 to 8.00.
For the compound `O=C(Nc1cccc(F)c1)N1CC(S(=O)(=O)N2CCC(c3coc4cccnc34)CC2)C1` [Compound 383, N-(3-fluorophenyl)-3-(4-furo[3,2-b]pyridin-3-ylpiperidin-1-yl)sulfonylaze-tidine-1-carboxamide], the pIC50 is 7.00 to 8.00.
Same read-out and setting: the same measure for `O=C(Nc1cc(F)ccc1Cl)N1CC(S(=O)(=O)N2CCC(c3coc4cccnc34)CC2)C1` [Compound 384, N-(2-chloro-5-fluorophenyl)-3-(4-furo[3,2-b]pyridin-3-ylpiperidin-1-yl)sulfonylaze-tidine-1-carboxamide]: 7.00 to 8.00; for `O=C(Nc1cc(F)ccc1Cl)N1CC(S(=O)(=O)N2CCC(c3c[nH]c4ncccc34)CC2)C1` [Compound 385, N-(2-chloro-5-fluorophenyl)-3-[4-(1H-pyrrolo[2,3-b]pyridin-3-yl)piperidin-1-yl]sulfonylaze-tidine-1-carboxamide]: 7.00 to 8.00; for `Cc1noc(C)c1CC(=O)N1CC(S(=O)(=O)N2CCC(c3ccc(Cl)cc3)CC2)C1` [Compound 386, 1-[3-[4-(4-chlorophenyl)piperidin-1-yl]sulfonylaze-tidin-1-yl]-2-(3,5-dimethyl-1,2-oxazol-4-yl)ethanone]: 7.00 to 8.00.
On the same count and under the same terms, then `Cc1cccc(F)c1NC(=O)N1CC(S(=O)(=O)N2CCC(c3c[nH]c4ncccc34)CC2)C1` [Compound 387, N-(2-fluoro-6-methylphenyl)-3-[4-(1H-pyrrolo[2,3-b]pyridin-3-yl)piperidin-1-yl]sulfonylaze-tidine-1-carboxamide], with 7.00 to 8.00; and `O=C(Nc1cccc(F)c1)N1CC(S(=O)(=O)N2CCC(c3c[nH]c4ncccc34)CC2)C1` [Compound 389, N-(3-fluorophenyl)-3-[4-(1H-pyrrolo[2,3-b]pyridin-3-yl)piperidin-1-yl]sulfonylaze-tidine-1-carboxamide], with 7.00 to 8.00; and `O=C(Nc1c(F)cccc1F)N1CC(S(=O)(=O)N2CCC(c3c[nH]c4ncccc34)CC2)C1` [Compound 390, N-(2,6-difluorophenyl)-3-[4-(1H-pyrrolo[2,3-b]pyridin-3-yl)piperidin-1-yl]sulfonylaze-tidine-1-carboxamide], with 7.00 to 8.00.
Same read-out and setting: then `Cc1cccc(C)c1NC(=O)N1CC(S(=O)(=O)N2CCC(c3c[nH]c4ncccc34)CC2)C1` [Compound 391, N-(2,6-dimethylphenyl)-3-[4-(1H-pyrrolo[2,3-b]pyridin-3-yl)piperidin-1-yl]sulfonylaze-tidine-1-carboxamide], with 7.00 to 8.00; and `Cc1cc(F)ccc1NC(=O)N1CC(S(=O)(=O)N2CCC(c3coc4cccnc34)CC2)C1` [Compound 392, N-(4-fluoro-2-methylphenyl)-3-(4-furo[3,2-b]pyridin-3-ylpiperidin-1-yl)sulfonylaze-tidine-1-carboxamide], with 7.00 to 8.00.
